Data set [1] in a line: Hydrodynamic size distribution, potential and polydispersity index (Zetasizer Nano). The data set is classed as physicochemical.
For the next data set, the system named is M1-activated FLS. Put plainly: Cytokine expression in FLSs activated with M1 macrophage conditioned medium. Type of data set: cell-based, human. On the procedure:
(§1) To measure cytokine expression, RT-PCR (CFX 384, Bio-Rad, Hercules, CA, USA) was performed according to the manufacturer's protocol. […] Then, total RNA was isolated from cells (5×10^5 cells/well in a total of 6-well plates) using TRIzol (15596018, Thermo Fisher Scientific) and first strand complementary DNA (cDNA) using RT premix (Promega) was synthesized. Reverse transcription conditions were carried out at 45° C. for 60 minutes and at 95° C. for 5 minutes. Briefly, in each final reaction tube, 2 μL of cDNA (1 μg), 1 μL of sense and antisense primer solutions (0.4 μM), 12.5 μL of SYBR Premix Ex Taq (Takara Bio Inc.) and 9.5 μL of dH2O. The cycle threshold (Ct) value was calculated using the CFX96 Real-Time PCR Detection System (Bio-Rad) software, and the comparative Ct method (2ΔΔCt model) was used to calculate the relative fold change of gene expression. It was then normalized to mean GAPDH expression.
Recently, the role of macrophages in inflamed synovial membranes has been of great interest due to the inflammatory effects of these cells during pathogens of RA and OA in joints (A. Kennedy et al., Front. Immunol., 2:52, 2011). The present inventors therefore investigated the stimulation of FLS pro-inflammatory activity by activated M1 macrophage cytokines (from LPS-treated J774 cells to conditioned medium).

A further data set relates to CIA-induced mice. Put plainly: Collagen-induced arthritis (CIA) model. The settings on record: for paw edema and paw score: ankle joint, 48 days. The data set is classed as in vivo, DBA/1 mice. On the procedure:
DBA/1 mice (male, 4-6 weeks old, body weight 20-25 g) were purchased from Orient Bio (Seoul, Korea) and the mice were subjected to a 12-hour light/dark cycle (lit at 6:30 AM) for 7-14 days. They were placed in a specific pathogen-free environment with temperature and humidity controlled and acclimatized before the experiment. All animal experiments were performed according to the Gachon University Laboratory Animal Care and Use Guide. […] Animals with […] arthritis were randomly assigned to 6 groups (n=6) after the first signs of inflammation were observed on day 27.
The status of RA was assessed visually by grading paw swelling according to the following criteria: 0, no swelling; 1, inflammation and swelling in one toe; 2, more than one toe, but inflammation and swelling throughout the foot; 3, moderate swelling of the entire foot; 4, Severe erythema and swelling of the entire foot and ankle (H. E. Scales, et al., Rheumatology (Oxford) 55 (3): 564-572, 2016). A total score of four paws was recorded for each mouse as the arthritis index. […] Each treatment group was administered twice weekly for 3 weeks, 2 mg/kg or 5 mg/kg condition, and the arthritis index of each group was recorded over time. After 3 weeks of treatment, mice were sacrificed, and limbs were collected and histological analysis was performed.
Histopathology was evaluated to determine the characteristics of RA including macrophage phenotype, synovitis and cartilage destruction. Specifically, on day 48, the mice were sacrificed and the ankle joint was recovered. The […] was fixed in 4% paraformaldehyde at 4° C. for 3 days, transferred to a descaling solution (Sigma), and left on an orbital shaker. Then, the tissue was decalcified at room temperature for 14 days, and the non-calcified ankle joint was embedded in paraffin and then cut into 3 μm using a microtome. For immunofluorescence histochemistry, tissue sections were dewaxed and TNF-α (Abcam, ab1793), IL-1β (Abcam, ab9722), IL-6 (Abcam, ab7737), INF-γ (Novus Biotech, NBP1), CD86 (Invitrogen, 13-0862-82), and Dectin-1 (Abcam, ab140039) were stained with primary antibodies. The secondary antibodies used in the present invention are goat anti-rat Alexa Fluor 488 (Abcam) for INF-γ, goat anti-mouse Alexa Fluor 488 (Abcam) for TNF-α, goat anti-mouse Alexa Fluor 568 for CD86 (Abcam), goat anti-rabbit Alexa Fluor 488 (Abcam) for IL-1β and IL-6 and goat anti-rabbit Alexa Fluor 568 (Abcam) for Dectin-1. The tissue sections were then stained with DAPI mounting solution and observed using a confocal fluorescence microscope (LSM700, Carl Zeiss) and EVOS M7000, Invitrogen. Fluorescence intensity was also quantified using ImageJ, Zen Lite (Zeiss) and Celleste (Invitrogen).

Data set [2] concerns macrophages treated with TNF-α-activated FLSs medium. Put plainly: Macrophage repolarization after TNF-α-activated FLSs medium. Type of data set: cell-based. On the procedure: as §1
Macrophages of the synovium can stimulate pro-inflammatory FLSs activity by infiltrating inflamed tissues and increasing pro-inflammatory cytokine levels (M. Asif Amin et al., Semin. Immunopathol., 39 (4): 385-393, 2017). For this reason, modulating macrophage differentiation (ie, repolarization) is important in alleviating arthritis disease (J. Kim et al., ACS Nano, 13 (3): 3206-3217, 2019).

Data set [3] in a line: H2O2 decomposition and O2 production analysis. The settings on record: after 24 hours, pH 7.4. On the procedure: Then, 50 μl of the solution was added to a solution of 100 μL of Ti (SO4)2 containing 1.33 mL of 24% Ti(SO4)2 and 8.33 mL of H2SO4 in 50 mL of deionized water after 24 hours. After the reaction was completed, the absorbance of the solution was measured at 405 nm to evaluate the H2O2 concentration.
We performed H2O2-scavenging effect of AuNPs and intracellular ROS analysis before pro-inflammatory cytokine secretion assay. Specifically, after treatment with Triamcinolone and AuNPs under physiological conditions (pH 7.4), concentration of H2O2 was analyzed.

Take `C[C@@H]1C[C@H]2[C@@H]3CCC4=CC(=O)C=C[C@]4(C)[C@@]3(F)[C@@H](O)C[C@]2(C)[C@@]1(O)C(=O)CO` [free Dex, dexamethasone]: in data set [1] (Example 9, Dex series), the “electric potential caused by the surface charge” value is given as “neutrally charged” and the hydrodynamic size is 125 nm.
As to `C[C@]12C=CC(=O)C=C1CC[C@H]1[C@@H]3C[C@@H](O)[C@](O)(C(=O)CO)[C@@]3(C)C[C@H](O)[C@@]12F` [Triam, Triamcinolone], the “level of FLSs pro-inflammatory cytokines (TNF-α, IL-1β and IL-6)” value in the data set on M1-activated FLS (FLSs treated with M1 medium) is “effectively reduced”. The “anti-inflammatory mRNA (IL-4, IL-10 and Arg-1) synthesis” value with M1-activated FLS (M1-activated FLS) is given as “did not induce anti-inflammatory cytokine release”. In the data set with CIA-induced mice (2 mg/kg), the “level of CD86 (M1 marker) in ankle joint” value is “reduced the level of the M1 marker”; the “level of Dectin-1 (M2 marker) in ankle joint” value was “did not sufficiently restore the level of the M2 marker”; the “paw edema and paw score” value is “did not show sufficient effect”. Also, in the data set on CIA-induced mice (5 mg/kg), the “level of CD86 (M1 marker) in ankle joint” value is “reduced the level of the M1 marker”; the “level of Dectin-1 (M2 marker) in ankle joint” value is reported as “did not sufficiently restore the level of the M2 marker”; the “paw edema and paw score” value was “did not show sufficient effect”. In data set [2], the “M2 response (IL-4, Arg-1 and IL-10 expression)” value is given as “did not induce noticeable M2 marker expression”; the “inflammatory marker levels (TNF-α, IL-1β and IL-6 expression)” value is given as “decreased significantly”. In addition, the “reduction of H2O2 concentration” value in data set [3] is recorded as “about 48%”. For the same compound, in data set [1] (Example 1, Triam series), the “electric potential caused by the surface charge” value is “approached neutral charges” and the hydrodynamic size came out at 75 nm.

Source of the values: patent US20250000876A1, “Novel therapeutic agent for inflammatory disease” (Gachon University of Industry-Academic cooperation …, priority 2020, published 2025).
